Structures are written as SMILES.

For this experiment, the target named is T1, hTRPV3 channels (Homo sapiens, UniProt Q8NET8).
T1 construct: expressed in transfected cells; host or cells: HEK293
T1 sequence (Q8NET8 1-790): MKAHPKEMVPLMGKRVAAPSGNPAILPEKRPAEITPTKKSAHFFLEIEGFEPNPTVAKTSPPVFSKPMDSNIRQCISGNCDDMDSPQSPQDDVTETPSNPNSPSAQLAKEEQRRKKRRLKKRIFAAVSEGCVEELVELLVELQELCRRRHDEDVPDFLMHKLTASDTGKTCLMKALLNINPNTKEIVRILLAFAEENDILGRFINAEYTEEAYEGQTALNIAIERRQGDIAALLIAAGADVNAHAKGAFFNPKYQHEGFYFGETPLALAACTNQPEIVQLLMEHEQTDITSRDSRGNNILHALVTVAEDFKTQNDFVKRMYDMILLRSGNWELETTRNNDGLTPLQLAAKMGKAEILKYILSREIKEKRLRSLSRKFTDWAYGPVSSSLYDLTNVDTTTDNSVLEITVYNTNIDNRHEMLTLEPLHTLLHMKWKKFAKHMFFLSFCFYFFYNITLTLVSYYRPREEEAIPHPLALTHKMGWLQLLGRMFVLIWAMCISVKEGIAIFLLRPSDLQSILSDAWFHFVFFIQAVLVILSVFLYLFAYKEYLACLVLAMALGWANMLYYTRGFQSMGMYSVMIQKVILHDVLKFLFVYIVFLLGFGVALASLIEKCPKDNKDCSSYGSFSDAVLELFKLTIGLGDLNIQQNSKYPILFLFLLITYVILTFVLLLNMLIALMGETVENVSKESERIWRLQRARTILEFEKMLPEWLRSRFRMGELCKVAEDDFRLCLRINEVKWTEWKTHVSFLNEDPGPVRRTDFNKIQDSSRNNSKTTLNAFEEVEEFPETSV
The experiment is described as follows: Whole-cell patch-clamp of hTRPV3 currents activated by 2-APB in HEK293 cells. The format is cell-based. As to the method: HEK293 cells were cultured in Dulbecco’s modified Eagle’s medium (DMEM, Gibco) containing 4.5 g/L D-glucose supplemented with 10% fetal bovine serum based at 37 °C with 5% CO2. For whole-cell patch-clamp recordings, cells were grown in glass coverslips for 24 h before transient transfections with 3000 ng cDNAs of hTRPV3 (gene accession number BC104866.1), hTRPV1 (accession number NM_080704.3), mTRPV2 (accession number NM_011706.2), hTRPV4 (accession number NM_021625.5), hTRPA1 (accession number NM_007332.3) and hTRPM8 (accession number NM_024080.5) into HEK293 cells grown in a 35-mm cell culture dish using Lipofectamine 2000 (Invitrogen). Cells were used 18 ∼ 24 h after transfection. All WT or mutant hTRPV3 plasmids were validated by DNA sequencing.
Whole-cell patch clamp recordings of wild-type and mutants were carried out at room temperature using the HEKA EPC10 amplifier powered by PatchMaster software (HEKA) or MultiClamp 700B amplifier driven by Clampex 11.0.3 software. The borosilicate glass pipettes were pulled and fire-polished to 3∼6 MΩ using a DMZ universal electrode puller (Zeitz-Instruments, GmbH). Pipette solution and bath solution both contained (in mM): 130 NaCl, three HEPES, and 0.2 EDTA (pH = 7.4). Cell membrane potential was held at 0 mV, currents were recorded at a voltage ramp from −100 to +100 mV for 500-ms and analyzed at ±80 mV.
For orientation: The patch-clamp technique gives a direct electrical read-out from membranes.

Usually inhibition stands for the share of the control response that was lost under treatment. In general, IC50 refers to the concentration needed to halve the response being measured. `CCC(=O)c1c(O)cc(O)cc1O` [flopropione]: the inhibition at 100 µM (HEK293, flopropione 100 μmol/L, agonist 2-APB 50 μmol/L, read-out: inhibition of TRPV3 currents) was about 84%. Further, under “whole-cell, HEK293, 50 μM 2-APB activation, n = 5, mean ± SD, read-out: IC50 of dose-dependent inhibition of TRPV3 currents”, the IC50 turned out to be 17.8 ± 3.5 µM.
